Several values for one entry are separate records, joined by “and”; a condition that tells them apart may be missing. Equal values may be shown once. Toxic doses and inconclusive results are not listed.
Test system: BDF1 mice, B16 melanoma ip, median survival T/C
Experiment: NCI In Vivo Anticancer Drug Screen. Data for tumor model B16 Melanoma (intraperitoneal) in B6D2F1 (BDF1) mice
Conditions: endpoint: median survival time, higher = longer survival
How it was run: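 Survival or tumor size is measured after treatment of tumor-bearing mice and normalised to the vehicle-treated control group.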

[1] = dose: 50.0 mg/kg/injection, schedule: Q01DX009 (ip), vehicle: Klucel (hydroxypropylcellulose) (HPC)

With O=C(COc1ccc(Cl)cc1)Nc1ccccc1C(F)(F)F the T/C (dose: 100.0 mg/kg/injection, schedule: Q04DX003 (ip), vehicle: Klucel (hydroxypropylcellulose) (HPC)) was 90 % of control, the T/C (dose: 200.0 mg/kg/injection, schedule: Q04DX003 (ip), vehicle: Klucel (hydroxypropylcellulose) (HPC)) was 92 % of control and the T/C (dose: 400.0 mg/kg/injection, schedule: Q04DX003 (ip), vehicle: Klucel (hydroxypropylcellulose) (HPC)) was 90 % of control.

COc1cc(Cc2nccc3cc(OC)c(OC)cc23)c(C(C)=O)c(OC)c1 was tested, and the T/C (dose: 10.0 mg/kg/injection, schedule: Q01DX009 (ip), vehicle: saline) was 101 % of control, the T/C (dose: 20.0 mg/kg/injection, schedule: Q01DX009 (ip), vehicle: saline) was 107 % of control and the T/C (dose: 40.0 mg/kg/injection, schedule: Q01DX009 (ip), vehicle: saline) was 107 % of control. The T/C (dose: 80.0 mg/kg/injection, schedule: Q01DX009 (ip), vehicle: saline) was 107 % of control.

For Oc1cc(N2CC2)c(O)cc1N1CC1, the T/C (dose: 0.22 mg/kg/injection, schedule: Q01DX009 (ip), vehicle: saline) was 123 % of control, the T/C (dose: 0.44 mg/kg/injection, schedule: Q01DX009 (ip), vehicle: saline) was 188 % of control and the T/C (dose: 0.68 mg/kg/injection, schedule: Q01DX009 (ip), vehicle: saline) was 156 % of control and 159 % of control.

With O=C(C=C(C(F)(F)Cl)C(F)(F)Cl)c1cccs1 the T/C (dose: 0.31 mg/kg/injection, schedule: Q01DX009 (ip), vehicle: saline) was 97 % of control, the T/C (dose: 0.62 mg/kg/injection, schedule: Q01DX009 (ip), vehicle: saline) was 92 % of control and the T/C (dose: 2.5 mg/kg/injection, schedule: Q04DX003 (ip), vehicle: saline) was 97 % of control. For the same compound, the T/C (dose: 5.0 mg/kg/injection, schedule: Q04DX003 (ip), vehicle: saline) was 105 % of control and the T/C (dose: 10.0 mg/kg/injection, schedule: Q04DX003 (ip), vehicle: saline) was 90 % of control.

c1cc2cc3c(cc2cc1CC1NCCc2cc4c(cc21)OCO4)OCO3 (centres undefined) was tested, and the T/C (dose: 25.0 mg/kg/injection, schedule: Q01DX009 (ip), vehicle: Klucel (hydroxypropylcellulose) (HPC)) was 97 % of control, the T/C [1] was 89 % of control and the T/C (dose: 100.0 mg/kg/injection, schedule: Q01DX009 (ip), vehicle: Klucel (hydroxypropylcellulose) (HPC)) was 94 % of control.

ClCC[N-]CC[N-]CCCl.ClCC[N-]CC[N-]CCCl.[O-][Cl+3]([O-])([O-])O.[Zn+2] was tested, and the T/C (dose: 2.5 mg/kg/injection, schedule: Q01DX009 (ip), vehicle: Klucel (hydroxypropylcellulose) (HPC)) was 106 % of control, the T/C (dose: 5.0 mg/kg/injection, schedule: Q01DX009 (ip), vehicle: Klucel (hydroxypropylcellulose) (HPC)) was 92 % of control and the T/C (dose: 10.0 mg/kg/injection, schedule: Q01DX009 (ip), vehicle: Klucel (hydroxypropylcellulose) (HPC)) was 101 % of control. For the same compound, the T/C (dose: 20.0 mg/kg/injection, schedule: Q01DX009 (ip), vehicle: Klucel (hydroxypropylcellulose) (HPC)) was 104 % of control.

With CC1CN1P(=O)(OCCC#N)N1CC1C (centres undefined) the T/C (dose: 50.0 mg/kg/injection, schedule: Q01DX009 (ip), vehicle: saline) was 121 % of control, the T/C (dose: 100.0 mg/kg/injection, schedule: Q01DX009 (ip), vehicle: saline) was 115 % of control and the T/C (dose: 200.0 mg/kg/injection, schedule: Q01DX009 (ip), vehicle: saline) was 120 % of control.

CCC1CC(O)c2c(O)c3c(c(O)c2C1O)C(=O)c1cccc(O)c1C3=O (centres undefined) (tested in a mixture with another compound) was tested, and the T/C (dose: 0.01 mg/kg/injection, schedule: Q01DX009 (ip), vehicle: saline) was 95 % of control, the T/C (dose: 0.03 mg/kg/injection, schedule: Q01DX009 (ip), vehicle: saline) was 86 % of control and the T/C (dose: 0.06 mg/kg/injection, schedule: Q04DX003 (ip), vehicle: saline) was 102 % of control. For the same compound, the T/C (dose: 0.12 mg/kg/injection, schedule: Q04DX003 (ip), vehicle: saline) was 109 % of control and the T/C (dose: 15.0 micrograms/kg/injection, schedule: Q01DX009 (ip), vehicle: saline) was 119 % of control.

CCCCCCCCCCCCCCCCS(=O)(=O)c1ccc(NN)cc1 was tested, and the T/C [1] was 97 % of control and the T/C (dose: 200.0 mg/kg/injection, schedule: Q01DX009 (ip), vehicle: Klucel (hydroxypropylcellulose) (HPC)) was 86 % of control and 88 % of control.

C=CCCC(=O)CCCC(=O)O[C@@H]1[C@@H]2[C@H](CC1(C)C)[C@H](O)[C@@]13O[C@@H]1[C@H](O)[C@@]1(CO1)[C@@]23C was tested, and the T/C (dose: 6.2 micrograms/kg/injection, schedule: Q01DX009 (ip), vehicle: saline) was 98 % of control, the T/C (dose: 6.3 micrograms/kg/injection, schedule: Q01DX009 (ip), vehicle: Klucel (hydroxypropylcellulose) (HPC)) was 107 % of control and the T/C (dose: 12.5 micrograms/kg/injection, schedule: Q01DX009 (ip), vehicle: Klucel (hydroxypropylcellulose) (HPC)) was 121 % of control. The T/C (dose: 12.5 micrograms/kg/injection, schedule: Q01DX009 (ip), vehicle: saline) was 97 % of control, the T/C (dose: 25.0 micrograms/kg/injection, schedule: Q01DX009 (ip), vehicle: saline) was 106 % of control and the T/C (dose: 50.0 micrograms/kg/injection, schedule: Q01DX009 (ip), vehicle: Klucel (hydroxypropylcellulose) (HPC)) was 91 % of control. For the same compound, the T/C (dose: 50.0 micrograms/kg/injection, schedule: Q01DX009 (ip), vehicle: saline) was 102 % of control.
